Test results as given in ChEMBL document CHEMBL1201862, “PubChem BioAssay data set” (2004).
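Compound exposure: 48 hours, 5 concentrations, 96-well plates. Abbreviation: GI50, concentration required for 50% inhibition of growth.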 The source made the active and inactive calls. No stated cut-off is given here; in the data, active = GI50 up to about 1.1 µM and inactive = higher.

What was measured:
Assay in all cases: growth of human tumour cells (NCI), 48 h
T47D = system: T47D
NCI-H522 = system: NCI-H522
HCT-116 = system: HCT-116
MDA-N = system: MDA-N
TK-10 = system: TK-10
K562 = system: K562
RXF 393 = system: RXF 393
HT-29 = system: HT-29
M14 = system: M14
NCI-H226 = system: NCI-H226
SW-620 = system: SW-620
SN12C = system: SN12C
U-251 = system: U-251
A498 = system: A498
SK-MEL-28 = system: SK-MEL-28
OVCAR-5 = system: OVCAR-5
NCI-H460 = system: NCI-H460
OVCAR-3 = system: OVCAR-3
PC-3 = system: PC-3

| Compound | GI50 (T47D) | GI50 (NCI-H522) | GI50 (HCT-116) | GI50 (MDA-N) | GI50 (TK-10) | GI50 (K562) | GI50 (RXF 393) | GI50 (HT-29) | GI50 (M14) | GI50 (NCI-H226) | GI50 (SW-620) | GI50 (SN12C) | GI50 (U-251) | GI50 (A498) | GI50 (SK-MEL-28) | GI50 (OVCAR-5) | GI50 (NCI-H460) | GI50 (OVCAR-3) | GI50 (PC-3) |
| --- | --- | --- | --- | --- | --- | --- | --- | --- | --- | --- | --- | --- | --- | --- | --- | --- | --- | --- | --- |
| CN(NC(=O)/C(=C/c1ccc(O)cc1)NC(=O)c1ccccc1)c1ccnc2cc(Cl)ccc12 | 20.5 µM (inactive) | 21 µM (inactive) | 18.2 µM (inactive) | 17.4 µM (inactive) | 15.5 µM (inactive) | 6.35 µM (inactive) | 14.6 µM (inactive) | 6.4 µM (inactive) | 19 µM (inactive) | 12.7 µM (inactive) | 20.8 µM (inactive) | 24.9 µM (inactive) | 14.8 µM (inactive) | 18.2 µM (inactive) | 19.9 µM (inactive) | 22.5 µM (inactive) | 15.6 µM (inactive) | 16.7 µM (inactive) | 16.6 µM (inactive) |
| COC(=O)/C=C\[C@@H]1[C@H](C)N1S(=O)(=O)c1ccc(C)cc1 (some centres undefined) | > 100 µM (inactive) | > 100 µM (inactive) | > 100 µM (inactive) | > 100 µM (inactive) | > 100 µM (inactive) | > 100 µM (inactive) | > 100 µM (inactive) | > 100 µM (inactive) | > 100 µM (inactive) | > 100 µM (inactive) | > 100 µM (inactive) | > 100 µM (inactive) | > 100 µM (inactive) | > 100 µM (inactive) | > 100 µM (inactive) | > 100 µM (inactive) | > 100 µM (inactive) | > 100 µM (inactive) | > 100 µM (inactive) |
| COC(=O)c1c(C)ccc2c(O)c3c(cc12)C(=O)c1c2c(cc(O)c1C3=O)C1(C)OC(C)(O2)C(O)C(N(C)C)C1O (centres undefined) | 2.76 µM (inactive) | 1.22 µM (inactive) | 0.643 µM (active) | 1.45 µM (inactive) | 1.4 µM (inactive) | 0.942 µM (active) | 1.22 µM (inactive) | 0.577 µM (active) | 1.85 µM (inactive) | 2.26 µM (inactive) | 0.869 µM (active) | 2.41 µM (inactive) | 0.667 µM (active) | 1.57 µM (inactive) | 4.37 µM (inactive) | 2.96 µM (inactive) | 0.681 µM (active) | 2.41 µM (inactive) | 1.66 µM (inactive) |
| c1cncc(CNc2ncn[nH]2)c1 | > 100 µM (inactive) | > 100 µM (inactive) | > 100 µM (inactive) | > 100 µM (inactive) | > 100 µM (inactive) | > 100 µM (inactive) | > 100 µM (inactive) | > 100 µM (inactive) | > 100 µM (inactive) | > 100 µM (inactive) | > 100 µM (inactive) | > 100 µM (inactive) | > 100 µM (inactive) | > 100 µM (inactive) | > 100 µM (inactive) | > 100 µM (inactive) | > 100 µM (inactive) | > 100 µM (inactive) | > 100 µM (inactive) |
| Cn1c2ccccc2c2c(-c3ccccc3)cc3c(c21)C(=O)C=CC3=O | 1.38 µM (inactive) | 1.23 µM (inactive) | 1.45 µM (inactive) | 2.37 µM (inactive) | 1.92 µM (inactive) | 0.249 µM (active) | 2.2 µM (inactive) | 3.83 µM (inactive) | 1.46 µM (inactive) | 2.18 µM (inactive) | 0.421 µM (active) | 2.39 µM (inactive) | 4.05 µM (inactive) | 2.23 µM (inactive) | 2 µM (inactive) | > 8.51 µM (inactive) | 6.07 µM (inactive) | 2.05 µM (inactive) | 3.02 µM (inactive) |
| CC12CC(C/C1=N/O)C(C)(C)C2 (centres undefined) | > 100 µM (inactive) | > 100 µM (inactive) | > 100 µM (inactive) | > 100 µM (inactive) | > 100 µM (inactive) | > 100 µM (inactive) | > 100 µM (inactive) | > 100 µM (inactive) | > 100 µM (inactive) | > 100 µM (inactive) | > 100 µM (inactive) | > 100 µM (inactive) | > 100 µM (inactive) | > 100 µM (inactive) | > 100 µM (inactive) | > 100 µM (inactive) | > 100 µM (inactive) | > 100 µM (inactive) | > 100 µM (inactive) |
